Test [1] addresses T1, Cysteine--tRNA ligase, cytoplasmic (Homo sapiens, UniProt P49589).
T1 sequence (P49589 whole entry): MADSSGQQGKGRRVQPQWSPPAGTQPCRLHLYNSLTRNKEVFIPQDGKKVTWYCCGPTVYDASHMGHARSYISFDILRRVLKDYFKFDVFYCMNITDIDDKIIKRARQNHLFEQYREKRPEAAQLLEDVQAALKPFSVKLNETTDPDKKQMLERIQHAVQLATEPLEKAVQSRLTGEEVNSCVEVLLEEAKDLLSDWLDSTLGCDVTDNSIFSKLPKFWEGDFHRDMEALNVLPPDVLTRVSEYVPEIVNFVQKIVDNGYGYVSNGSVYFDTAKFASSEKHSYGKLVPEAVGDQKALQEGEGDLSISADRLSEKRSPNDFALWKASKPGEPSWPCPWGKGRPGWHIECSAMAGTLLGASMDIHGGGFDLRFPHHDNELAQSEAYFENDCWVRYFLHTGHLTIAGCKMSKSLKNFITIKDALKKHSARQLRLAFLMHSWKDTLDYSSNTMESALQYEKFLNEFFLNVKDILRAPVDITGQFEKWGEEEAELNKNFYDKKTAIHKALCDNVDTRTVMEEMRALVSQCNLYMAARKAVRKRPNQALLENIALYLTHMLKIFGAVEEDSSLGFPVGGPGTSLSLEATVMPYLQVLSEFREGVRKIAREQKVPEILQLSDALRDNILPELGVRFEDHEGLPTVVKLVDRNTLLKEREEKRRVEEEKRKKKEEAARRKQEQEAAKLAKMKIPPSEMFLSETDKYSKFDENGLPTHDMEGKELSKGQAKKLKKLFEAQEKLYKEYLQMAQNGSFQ

Test [2] has as its target Cyclin-dependent kinase 12 (Homo sapiens, UniProt Q9NYV4).
Test [3] deals with Cyclin-dependent kinase 4 (Homo sapiens, UniProt P11802).
The target in test [4] is T2, Serine/threonine-protein kinase Chk1 (Homo sapiens, UniProt O14757).
T2 sequence (O14757 whole entry): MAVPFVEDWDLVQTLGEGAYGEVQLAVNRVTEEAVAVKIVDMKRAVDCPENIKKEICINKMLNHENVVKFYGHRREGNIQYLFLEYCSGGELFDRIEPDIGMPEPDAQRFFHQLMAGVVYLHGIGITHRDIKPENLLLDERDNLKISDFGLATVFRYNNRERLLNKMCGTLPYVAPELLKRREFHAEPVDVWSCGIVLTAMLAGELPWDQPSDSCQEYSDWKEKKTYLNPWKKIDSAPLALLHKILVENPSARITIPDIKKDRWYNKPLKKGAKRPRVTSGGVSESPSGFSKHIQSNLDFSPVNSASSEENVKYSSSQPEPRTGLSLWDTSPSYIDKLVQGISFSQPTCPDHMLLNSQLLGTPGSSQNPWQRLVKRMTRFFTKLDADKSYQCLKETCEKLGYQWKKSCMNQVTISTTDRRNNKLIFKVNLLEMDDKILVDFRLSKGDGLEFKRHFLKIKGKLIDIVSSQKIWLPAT

Test [5] addresses Casein kinase I isoform delta (Homo sapiens, UniProt P48730).
Test [6] deals with PAS domain-containing serine/threonine-protein kinase (Homo sapiens, UniProt Q96RG2).
For test [7], the target named is Ribosomal protein S6 kinase alpha-1 (Homo sapiens, UniProt Q15418).
The target of test [8] is Ribosomal protein S6 kinase alpha-4 (Homo sapiens, UniProt O75676).
Test [9] has as its target Serine/threonine-protein kinase 24 (Homo sapiens, UniProt Q9Y6E0).
The target in test [10] is Dual specificity testis-specific protein kinase 2 (Homo sapiens, UniProt Q96S53).
For test [11], the target named is T3, Isoleucine--tRNA ligase, mitochondrial (Homo sapiens, UniProt Q9NSE4).
T3 sequence (Q9NSE4 whole entry): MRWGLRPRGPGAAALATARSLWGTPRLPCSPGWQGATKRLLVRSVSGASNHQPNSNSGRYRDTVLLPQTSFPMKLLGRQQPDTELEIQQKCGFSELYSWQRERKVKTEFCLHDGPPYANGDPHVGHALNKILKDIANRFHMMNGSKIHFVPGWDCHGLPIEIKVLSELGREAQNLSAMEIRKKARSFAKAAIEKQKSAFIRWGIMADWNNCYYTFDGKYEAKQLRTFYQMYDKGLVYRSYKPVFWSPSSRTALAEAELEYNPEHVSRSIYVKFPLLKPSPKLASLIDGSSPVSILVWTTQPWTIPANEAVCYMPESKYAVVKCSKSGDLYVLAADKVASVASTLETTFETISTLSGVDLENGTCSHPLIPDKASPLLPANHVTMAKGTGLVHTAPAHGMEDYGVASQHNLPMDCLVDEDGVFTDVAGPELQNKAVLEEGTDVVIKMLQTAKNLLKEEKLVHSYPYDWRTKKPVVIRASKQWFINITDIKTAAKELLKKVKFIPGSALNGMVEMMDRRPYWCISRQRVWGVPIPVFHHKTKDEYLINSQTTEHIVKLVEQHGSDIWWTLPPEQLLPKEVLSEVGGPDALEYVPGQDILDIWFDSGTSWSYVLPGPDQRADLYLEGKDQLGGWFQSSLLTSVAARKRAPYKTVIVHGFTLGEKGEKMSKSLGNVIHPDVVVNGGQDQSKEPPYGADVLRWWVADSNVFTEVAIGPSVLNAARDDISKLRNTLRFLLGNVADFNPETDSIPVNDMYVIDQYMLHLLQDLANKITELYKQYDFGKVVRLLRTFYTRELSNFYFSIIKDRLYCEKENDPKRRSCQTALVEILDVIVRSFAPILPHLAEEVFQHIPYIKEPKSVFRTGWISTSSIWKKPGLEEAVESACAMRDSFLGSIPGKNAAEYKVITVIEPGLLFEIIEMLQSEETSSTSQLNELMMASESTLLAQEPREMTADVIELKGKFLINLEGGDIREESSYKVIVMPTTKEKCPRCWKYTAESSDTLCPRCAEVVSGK

Test [12] deals with Serine/threonine-protein kinase PAK 2 (Homo sapiens, UniProt Q13177).
Another test addresses Misshapen-like kinase 1 (Homo sapiens, UniProt Q8N4C8).

Activity calls are given as the source filed them.
Further: in the data inactive means no Kd found up to 30 µM.

Serine/threonine-protein kinase PAK 2, sequence (Q13177 whole entry): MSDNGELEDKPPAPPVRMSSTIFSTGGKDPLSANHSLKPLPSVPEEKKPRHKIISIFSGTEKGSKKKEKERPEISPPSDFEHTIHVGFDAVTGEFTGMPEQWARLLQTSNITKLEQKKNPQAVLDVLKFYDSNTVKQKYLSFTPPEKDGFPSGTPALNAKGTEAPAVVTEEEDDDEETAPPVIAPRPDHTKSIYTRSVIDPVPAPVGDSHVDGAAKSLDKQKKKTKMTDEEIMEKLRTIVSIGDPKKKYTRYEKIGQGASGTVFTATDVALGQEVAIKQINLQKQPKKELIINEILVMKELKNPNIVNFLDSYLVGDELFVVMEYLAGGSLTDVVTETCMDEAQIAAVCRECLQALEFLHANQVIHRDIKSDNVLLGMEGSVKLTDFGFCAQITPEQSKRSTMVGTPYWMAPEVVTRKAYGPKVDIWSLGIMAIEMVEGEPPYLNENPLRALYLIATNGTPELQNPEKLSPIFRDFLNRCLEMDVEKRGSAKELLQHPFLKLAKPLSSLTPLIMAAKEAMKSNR
Serine/threonine-protein kinase 24, sequence (Q9Y6E0 whole entry): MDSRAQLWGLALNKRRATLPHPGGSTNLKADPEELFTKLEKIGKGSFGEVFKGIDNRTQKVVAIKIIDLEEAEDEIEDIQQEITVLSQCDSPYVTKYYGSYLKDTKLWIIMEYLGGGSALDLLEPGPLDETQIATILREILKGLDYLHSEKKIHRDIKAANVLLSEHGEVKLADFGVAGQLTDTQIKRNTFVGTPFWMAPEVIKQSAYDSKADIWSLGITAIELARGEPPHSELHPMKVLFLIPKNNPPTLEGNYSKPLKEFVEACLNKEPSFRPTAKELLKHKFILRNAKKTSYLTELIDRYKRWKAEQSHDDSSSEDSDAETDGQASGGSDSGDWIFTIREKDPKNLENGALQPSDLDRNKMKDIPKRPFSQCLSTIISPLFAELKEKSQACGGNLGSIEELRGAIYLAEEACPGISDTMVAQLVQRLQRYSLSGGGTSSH
Casein kinase I isoform delta, sequence (P48730 whole entry, the tested form may be a part, canonical isoform): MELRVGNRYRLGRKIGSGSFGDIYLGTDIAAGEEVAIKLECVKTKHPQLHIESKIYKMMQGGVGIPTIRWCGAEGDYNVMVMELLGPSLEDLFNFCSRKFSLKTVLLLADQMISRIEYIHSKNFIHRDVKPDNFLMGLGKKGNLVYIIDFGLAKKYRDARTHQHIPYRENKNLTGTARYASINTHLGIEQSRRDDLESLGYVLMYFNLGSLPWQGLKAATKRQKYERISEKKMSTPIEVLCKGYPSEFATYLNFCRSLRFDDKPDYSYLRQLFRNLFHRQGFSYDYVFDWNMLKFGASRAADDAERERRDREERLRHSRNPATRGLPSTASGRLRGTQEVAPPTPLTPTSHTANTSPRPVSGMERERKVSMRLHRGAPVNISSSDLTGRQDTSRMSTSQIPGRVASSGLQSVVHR
Cyclin-dependent kinase 12, sequence (Q9NYV4 whole entry): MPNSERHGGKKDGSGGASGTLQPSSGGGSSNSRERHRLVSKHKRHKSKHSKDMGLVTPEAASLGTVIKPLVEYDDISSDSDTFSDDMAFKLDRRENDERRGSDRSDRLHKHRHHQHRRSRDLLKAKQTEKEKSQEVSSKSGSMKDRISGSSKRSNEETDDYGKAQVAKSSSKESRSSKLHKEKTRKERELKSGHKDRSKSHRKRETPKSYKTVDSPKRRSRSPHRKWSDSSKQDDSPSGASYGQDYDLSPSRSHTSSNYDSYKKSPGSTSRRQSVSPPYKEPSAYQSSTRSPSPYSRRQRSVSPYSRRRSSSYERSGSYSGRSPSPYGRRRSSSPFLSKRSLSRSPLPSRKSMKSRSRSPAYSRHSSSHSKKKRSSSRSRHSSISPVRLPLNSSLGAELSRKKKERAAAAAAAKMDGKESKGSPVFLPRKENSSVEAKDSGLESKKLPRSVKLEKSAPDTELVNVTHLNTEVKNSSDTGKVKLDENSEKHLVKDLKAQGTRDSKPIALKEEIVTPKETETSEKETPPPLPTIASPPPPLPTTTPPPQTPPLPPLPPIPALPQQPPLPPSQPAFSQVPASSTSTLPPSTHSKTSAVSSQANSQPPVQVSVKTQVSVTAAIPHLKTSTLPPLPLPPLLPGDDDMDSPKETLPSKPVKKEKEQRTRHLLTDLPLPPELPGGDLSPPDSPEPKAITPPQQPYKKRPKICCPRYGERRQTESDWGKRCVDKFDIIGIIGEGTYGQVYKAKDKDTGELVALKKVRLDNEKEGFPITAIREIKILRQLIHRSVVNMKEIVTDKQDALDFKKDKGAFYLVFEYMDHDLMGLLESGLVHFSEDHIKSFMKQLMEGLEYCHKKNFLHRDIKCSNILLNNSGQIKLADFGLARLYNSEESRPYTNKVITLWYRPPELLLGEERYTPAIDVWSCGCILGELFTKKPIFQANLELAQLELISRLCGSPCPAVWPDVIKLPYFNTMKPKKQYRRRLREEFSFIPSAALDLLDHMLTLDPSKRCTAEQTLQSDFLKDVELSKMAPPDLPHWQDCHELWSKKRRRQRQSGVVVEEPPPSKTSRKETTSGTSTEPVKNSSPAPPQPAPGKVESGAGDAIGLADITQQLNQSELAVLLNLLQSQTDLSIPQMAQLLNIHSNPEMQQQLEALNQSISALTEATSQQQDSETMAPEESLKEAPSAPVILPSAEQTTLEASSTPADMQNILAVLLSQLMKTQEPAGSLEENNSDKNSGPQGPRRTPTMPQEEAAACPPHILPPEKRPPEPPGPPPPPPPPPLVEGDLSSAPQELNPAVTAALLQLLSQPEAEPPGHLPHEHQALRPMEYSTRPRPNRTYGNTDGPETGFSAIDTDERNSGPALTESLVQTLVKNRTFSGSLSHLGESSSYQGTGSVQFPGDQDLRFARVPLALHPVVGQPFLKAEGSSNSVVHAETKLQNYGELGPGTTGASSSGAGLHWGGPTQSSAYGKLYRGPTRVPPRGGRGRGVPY
Ribosomal protein S6 kinase alpha-1, sequence (Q15418 whole entry): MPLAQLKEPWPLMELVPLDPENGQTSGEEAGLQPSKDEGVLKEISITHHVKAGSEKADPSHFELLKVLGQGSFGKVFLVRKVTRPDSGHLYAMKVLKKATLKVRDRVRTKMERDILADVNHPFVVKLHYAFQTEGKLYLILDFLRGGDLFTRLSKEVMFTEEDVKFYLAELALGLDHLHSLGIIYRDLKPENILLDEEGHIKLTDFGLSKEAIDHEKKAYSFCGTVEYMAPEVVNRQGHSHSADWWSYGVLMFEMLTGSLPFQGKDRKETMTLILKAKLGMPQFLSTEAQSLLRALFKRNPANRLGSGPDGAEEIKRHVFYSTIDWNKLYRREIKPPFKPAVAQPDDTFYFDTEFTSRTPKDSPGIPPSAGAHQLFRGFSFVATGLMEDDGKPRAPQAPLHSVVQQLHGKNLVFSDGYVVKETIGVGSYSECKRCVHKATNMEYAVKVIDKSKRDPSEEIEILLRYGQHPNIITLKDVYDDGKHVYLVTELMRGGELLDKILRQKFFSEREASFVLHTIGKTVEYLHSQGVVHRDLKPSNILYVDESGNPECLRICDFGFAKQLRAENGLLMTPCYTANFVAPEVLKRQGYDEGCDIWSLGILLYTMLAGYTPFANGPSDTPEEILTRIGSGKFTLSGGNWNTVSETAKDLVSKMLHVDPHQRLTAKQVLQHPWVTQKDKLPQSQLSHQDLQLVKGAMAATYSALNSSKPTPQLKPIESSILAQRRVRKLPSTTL
Cyclin-dependent kinase 4, sequence (P11802 whole entry): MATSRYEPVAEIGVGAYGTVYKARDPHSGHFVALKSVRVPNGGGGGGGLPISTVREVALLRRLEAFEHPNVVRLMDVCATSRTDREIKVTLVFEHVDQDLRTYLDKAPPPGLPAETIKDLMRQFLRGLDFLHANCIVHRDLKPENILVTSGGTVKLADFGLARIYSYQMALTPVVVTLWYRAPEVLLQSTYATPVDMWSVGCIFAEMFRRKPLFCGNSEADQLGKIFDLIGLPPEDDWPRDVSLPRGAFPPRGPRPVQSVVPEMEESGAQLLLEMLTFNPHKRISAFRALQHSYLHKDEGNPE
Ribosomal protein S6 kinase alpha-4, sequence (O75676 whole entry): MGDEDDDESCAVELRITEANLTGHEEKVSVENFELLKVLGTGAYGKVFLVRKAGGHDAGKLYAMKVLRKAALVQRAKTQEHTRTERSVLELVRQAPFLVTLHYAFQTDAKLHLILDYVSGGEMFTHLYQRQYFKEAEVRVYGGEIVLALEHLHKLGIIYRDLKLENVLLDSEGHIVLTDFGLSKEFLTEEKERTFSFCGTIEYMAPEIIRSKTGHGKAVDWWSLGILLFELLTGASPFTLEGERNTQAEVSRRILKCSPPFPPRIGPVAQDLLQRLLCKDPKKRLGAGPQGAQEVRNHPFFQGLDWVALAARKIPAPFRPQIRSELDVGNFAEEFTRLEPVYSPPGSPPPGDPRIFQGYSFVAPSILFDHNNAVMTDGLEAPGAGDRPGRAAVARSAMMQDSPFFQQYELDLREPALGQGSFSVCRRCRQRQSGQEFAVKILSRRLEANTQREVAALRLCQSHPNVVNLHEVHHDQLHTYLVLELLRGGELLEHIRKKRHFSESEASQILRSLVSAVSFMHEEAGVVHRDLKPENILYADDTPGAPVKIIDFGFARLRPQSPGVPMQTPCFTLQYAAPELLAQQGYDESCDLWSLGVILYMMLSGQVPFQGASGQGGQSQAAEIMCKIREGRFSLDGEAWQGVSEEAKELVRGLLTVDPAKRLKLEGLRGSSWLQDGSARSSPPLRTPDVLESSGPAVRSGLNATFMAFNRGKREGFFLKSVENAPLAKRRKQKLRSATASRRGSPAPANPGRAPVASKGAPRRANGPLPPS

Regarding `C=CC(=O)N1CCC[C@H](n2c(=O)n(-c3ccc(Oc4ccccc4)cc3)c3c(N)ncnc32)C1`, the Kd in test [1], in [2], in [3], in test [4], in test [5] and in [6] was > 30 µM (inactive) throughout. The Kd in test [7], in test [8], in test [9] and in [10] was > 30 µM (inactive) in each case.
With `Cc1nc2cc(-c3nn(C(C)C)c4ncnc(N)c34)ccc2o1`, the Kd is > 30 µM (inactive) in test [1]; > 30 µM (inactive) in test [2]; > 30 µM (inactive) in test [3]; > 30 µM (inactive) in test [4]; 0.152 µM (active) in test [5]; > 30 µM (inactive) in test [11]. Also, the Kd in [12] was > 30 µM (inactive); in [7] it was > 30 µM (inactive); in test [8] it was > 30 µM (inactive); in [9], > 30 µM (inactive); in test [10], 0.018 µM.
For the compound `Nc1ncnc2c1c(-c1cccc(OCc3ccccc3)c1)cn2[C@H]1C[C@@H](CN2CCC2)C1` [AEW-541], the Kd (in test [1]; in test [2]; in test [3]; in test [4]; in test [5]; at Misshapen-like kinase 1) was > 30 µM (inactive) throughout. In addition, the Kd in test [12], in [7] and in test [8] was > 30 µM (inactive) in each case.
On to `COc1cc(Nc2ncc3c(n2)-c2ccc(Cl)cc2C(c2c(F)cccc2OC)=NC3)ccc1C(=O)O` [ALISERTIB], for which the Kd in test [1], in test [2], in test [3], in test [12], in test [6] and in test [7] was > 30 µM (inactive) in each case. The Kd in test [9] and in test [10] was > 30 µM (inactive) in each case.
Take `Cc1csc(-c2nnc(Nc3ccc(Oc4ncccc4-c4ccnc(N)n4)cc3)c3ccccc23)c1` [AMG-900]: the dissociation constant (Kd) was 2.98 µM in test [2]; > 30 µM (inactive) in test [3]; > 30 µM (inactive) in [4]; > 30 µM (inactive) in [5]; > 30 µM (inactive) in [11]; > 30 µM (inactive) in test [12]. Besides, the Kd in test [7] is > 30 µM (inactive); in test [8], 2.07 µM (active); in test [9], > 30 µM (inactive); in test [10] it was > 30 µM (inactive).
With `COCC(=O)NC/C=C/c1ccc2ncnc(Nc3ccc(Oc4ccc(C)nc4)c(C)c3)c2c1` [CP-724714], the Kd in [1], in [2], in test [3], in [4], in test [5] and in test [11] was > 30 µM (inactive) in each case. Further, the Kd in [12], in test [7], in [8] and in [10] was > 30 µM (inactive) throughout.
As for `Cc1nc2cc(-n3ncc(C(=O)c4cc5ccccc5[nH]4)c3N)ccc2[nH]1` [FGFR INHIBITOR DEBIO 1347], the Kd in test [2], in [3], in [4], in [5], in test [11] and in test [12] was > 30 µM (inactive) each time. Besides, the Kd in [7], in [8], in test [9] and in test [10] was > 30 µM (inactive) each time.
In the case of `C[C@@H](Oc1cc(-n2cnc3ccc(CN4CCN(C)CC4)cc32)sc1C(N)=O)c1ccccc1C(F)(F)F` [GSK-461364], the Kd in test [1], in test [2], in test [11], in test [6] and in test [10] was > 30 µM (inactive) throughout.
Take `Cc1[nH]c(/C=C2\C(=O)Nc3ccccc32)c(C)c1CCC(=O)O` [ORANTINIB]: the Kd in [1], in test [2], in test [3], in test [11], in test [12] and in [6] was > 30 µM (inactive) in each case. In addition, the Kd in test [8] is 1.39 µM (active); in test [10], > 30 µM (inactive).
For the compound `Cc1cnc(NC(=O)Nc2cc(Br)c(C)cc2OC[C@@H]2CNCCO2)cn1` [RABUSERTIB], the Kd in [1], in [2], in test [3], in test [5], in test [11] and in test [12] was > 30 µM (inactive) each time. The Kd in test [6], in test [7], in test [8], in test [9] and in [10] was > 30 µM (inactive) in each case.
In the case of `N#CC1(c2ccc(NC(=O)c3cccnc3NCc3ccncc3)cc2)CCCC1` [RIVOCERANIB], the Kd in [1], in test [2], in test [3], in test [4], in test [5] and in [11] was > 30 µM (inactive) each time. Also, the Kd in test [12], in [6], in test [7], in [8], in test [9] and in test [10] was > 30 µM (inactive) throughout.
Take `O=C(NOCCO)c1cc(CN2OCCCC2=O)c(F)c(F)c1Nc1ccc(I)cc1F` [RO-4987655]: the Kd in test [1], in [2], in [11], in [6] and in test [10] was > 30 µM (inactive) each time.

(Values after ChEMBL document CHEMBL3991601, “The target landscape of clinical kinase drugs” (Science, 2017).)
